One molecule from patent US12350277B2, “Compositions and methods of use for treating aberrant inflammation in peri-ocular secretory glands or at the ocular surface” (CS Pharmaceuticals Limited, priority 2017, dated 2025) can be followed below.

Molecules are shown by their SMILES.

The subject of data set [1] is cynomolgus monkeys with unilateral (OS) ocular hypertension. Description: diurnal intraocular pressure during 4-week topical ocular treatment in ocular hypertensive monkeys. The class given is in vivo. The note with it: 4 weeks. An excerpt:
To test the effect of the compound of Formula I on intraocular pressure (IOP), eight female cynomolgus monkeys with unilateral (OS) ocular hypertension induced by prior photocoagulation (laser) procedure to the trabecular meshwork (TM) were used at an age between 11 and 14 years at the start of the study. Laser induced ocular hypertension had been created at least 9 years earlier in the study animals. Animals and treatments were randomized according to a 4×4 replications Williams-type Latin Square design layout. Following random assignment of a number between 1 and 8, the eight primates were randomized two each into four treatment groups (A-D), with treatments masked for the investigators until all data had been collected and entered into a database. […]
Conscious animals were seated in custom-designed chairs, and […] was measured with a pneumatonometer (Classic 30, Reichert Depew) after topical application of proparacaine hydrochloride (0.13%) in both eyes (FIG. 1). […] During run-in and treatment periods, diurnal IOP was determined two times per week at approximately 8:30 am, 1 pm, and 5 pm. For each animal bilateral tonometry was followed immediately by topical instillation of the appropriate drug formulation A, B, C, or D. During washout periods, diurnal IOP was measured once per week in both eyes at approximately 8:30 am, 1 pm, and 5 pm.

The nature of data set [2]: in vitro skin penetration, human cadaver skin in Franz-type diffusion cells. The class given is in vitro ADME. The procedure:
An in vitro skin penetration model using human cadaver skin mounted in Franz-type diffusion cells (FDC) was chosen to determine the skin permeation of the compound of Formula I applied as a 2% cream to the epidermal surface. Transdermal flux into a receptor fluid was measured over a period of 46 hours after application of the formulations. At the end of the 46-hour incubation period, the skin was tape-stripped and heat separated based on an established method and the concentration of the compound of Formula I was measured in the residual epidermis and dermis. The applied formulations comprised of 2% w/w compound of Formula I, 46% w/w white petrolatum, 8% w/w mineral oil, 8% w/w propylene glycol, 6.6% w/w ST-cyclomethicone-SNF, 3.3% w/w emulsifier 10, 2% w/w ST-elastomer-10, 0.08% w/w methylparaben, 0.06% w/w sodium phosphate dibasic anhydrous, 0.05% w/w citric acid anhydrous, 0.02% w/w propylparaben, and q.s. purified water. Vehicle cream comprised of 48% w/w white petrolatum, 8% w/w mineral oil, 8% w/w propylene glycol, 6.6% w/w ST-cyclomethicone-SNF, 3.3% w/w emulsifier 10, 2% w/w ST-elastomer-10, 0.08% w/w methylparaben, 0.06% w/w sodium phosphate dibasic anhydrous, 0.05% w/w citric acid anhydrous, 0.02% w/w propylparaben, and q.s. purified water was also tested as a negative control. […]
A high performance liquid chromatography UV (“HPLC-UV”) analytical method and an LC-MS/MS method for detecting the compound of Formula I in the skin and in the receptor fluid samples, respectively, was implemented and employed mobile phases A (0.05 mL trifluoroacetic acid (TFA) in 1000 mL LC-MS grade water) and B (0.05 mL TFA in 1000 mL LC-MS grade acetonitrile). The lower level of quantification (LLOQ) for the compound of Formula I for the LC-MS/MS method was determined to be in the 6-10 ng/mL range.

The mark [3] stands for this setting: 46 hours after 10 μL of 2% cream on epidermal surface, 6 replicates.

On to `C[C@@H]1C[C@H]2[C@@H]3C[C@H](F)C4=CC(=O)C=C[C@]4(C)[C@@]3(F)[C@@H](O)C[C@]2(C)[C@@]1(OC(=O)C1C(C)(C)C1(C)C)C(=O)OCC#N` [compound of Formula I, 6α,9α-difluoro-11 β-hydroxy-16α-methyl-3-oxo-17α-(2,2,3,3-tetramethycyclopropylcarbonyl)oxy-androsta-1,4-diene-17β-carboxylic acid cyanomethyl ester], for which the “IOP compared with dexamethasone treatment” value in data set [1] (10 mg/mL suspension vs MAXIDEX 1 mg/mL, TID) is given as “significantly lower than dexamethasone treatment”. Also, the “effect on intraocular pressure (IOP)” value in data set [1] (10 mg/mL suspension, 25 μL OU TID, topical to the eye) is “did not result in increased IOP”. Further, in data set [2] (4, 8, 24 and 46 hours after application of 2% cream), the “detection in transdermal receptor fluid” value is on record as “not in the transdermal receptor fluid”. Further, in data set [2] (setting [3]), the “accumulated amount in the dermis” value is recorded as 0.73+/−0.21 μg/cm^2 and the “accumulated amount in the epidermis” value was 2.89+/−0.32 μg/cm^2.
